Results published in BindingDB's records for PubMed 34491744 (National Center For Advancing Translational Sciences, 2021).

Biological target: Galactokinase (Homo sapiens, UniProt P51570)
Assay: Inhibition of recombinant human GALK1 using galactose as substrate incubated for 1 hrs in the presence of ATP by Kinase-Glo reagent based luminescence assay

Chain of Galactokinase (P51570 whole entry): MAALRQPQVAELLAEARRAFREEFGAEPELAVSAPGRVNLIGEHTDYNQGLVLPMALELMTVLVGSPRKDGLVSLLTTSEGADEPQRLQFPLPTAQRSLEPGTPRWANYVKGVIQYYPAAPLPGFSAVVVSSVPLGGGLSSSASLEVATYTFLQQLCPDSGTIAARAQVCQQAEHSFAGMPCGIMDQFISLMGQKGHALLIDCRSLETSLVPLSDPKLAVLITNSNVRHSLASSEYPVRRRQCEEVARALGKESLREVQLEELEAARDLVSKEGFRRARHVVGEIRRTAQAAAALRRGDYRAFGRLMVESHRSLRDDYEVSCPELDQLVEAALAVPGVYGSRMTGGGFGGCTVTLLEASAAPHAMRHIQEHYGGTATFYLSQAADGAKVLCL

Row | IC50 | Compound
1 | 1.58 µM | CC1=C(C(=O)NCc2cncn2C)C(c2ccccc2Cl)N=C(Nc2nc3ccccc3o2)N1 (stereo not drawn)
2 | 3.16 µM | CC1=C(C(=O)Nc2cc(C(=O)O)ccn2)C(c2ccccc2Cl)N=C(Nc2nc3cc(F)ccc3o2)N1 (stereo not drawn)
3 | 6.31 µM | CC1=C(C(=O)NCc2ccccc2O)C(c2ccccc2Cl)N=C(Nc2nc3ccccc3o2)N1 (stereo not drawn)
